According to PMC12040169 (PLOS Biology, 2025):

Test: in vitro
Conditions: human, hela cells, % viability

Compared with `NS(=O)(=O)c1ccc(NC(=O)CSc2nc3sc4c(c3c(=O)n2-c2ccc(Cl)cc2)CCCC4)cc1` [CBK267577], `CC(=O)c1cccc(NC(=O)CN(c2cc(Cl)ccc2Cl)S(=O)(=O)c2ccc(C)cc2)c1` [CBK268897] is lower in viability at 28.5 h, 10 µM: 91.9% for the first, 90.6% for the second.

First: O=C(N/N=C/c1cccnc1)c1cccc(F)c1 [CBK261689]
Second: CC(C)C(NC(=O)c1cccc(-n2cnnc2)c1)c1cccs1 (stereo not shown) [CBK282442]
The viability at 28.5 h, 10 µM of the first is lower: 101% for the first, 111% for the second.

Compared with `CCOCCCNC(=O)c1cnn2c(C)c(Cc3cccnc3)c(C)nc12` [CBK162152], `Cc1ccc(S(=O)(=O)N(CC(=O)Nc2cccnc2)c2ccc(C)c(C)c2)cc1` [CBK263974] is lower in viability at 28.5 h, 10 µM: 100% for the first, 75.4% for the second.

Going from `O=C(O)CNC(=O)c1ccc(S(=O)(=O)N2CCCC2)cc1` [CBK267434] to `Cc1ccc(C(=O)N2CCN(S(=O)(=O)c3sc(C(=O)O)c(C)c3C(=O)O)CC2)cc1` [CBK297120], the viability at 28.5 h, 10 µM rises from 87% to 91.1%.

Going from `CC(C)NC(=O)CN(C)Cc1nc(-c2cccc(C(F)(F)F)c2)no1` [CBK306036] to `CCN(Cc1ccccn1)C(=O)NC(C)c1cccc(NC(C)=O)c1` (stereo not shown) [CBK305380], the viability at 28.5 h, 10 µM rises from 72.2% to 92.9%.

Going from `O=C(CC1(O)C(=O)Nc2ccccc21)CC1(O)C(=O)Nc2ccccc21` (stereo not shown) [CBK263705] to `O=C(CSCc1cccc2ccccc12)Nc1c[nH]c(=O)[nH]c1=O` [CBK268500], the viability at 28.5 h, 10 µM rises from 93.1% to 103%.

Going from `CC(=O)NC(CCC(N)=O)C(=O)N1CC2(CCCC2)c2c(F)cccc21` (stereo not shown) [CBK306412] to `Cc1c(C(=O)N2CCN(C3CCCCC3)C(=O)C2)[nH]c2ccccc12` [CBK282539], the viability at 28.5 h, 10 µM rises from 82.9% to 99.3%.

Compared with `O=C1c2cccc3cccc(c23)C(=O)N1CCN1CCN(CC(O)COc2ccccc2)CC1` (stereo not shown) [CBK266255], `O=C(CCCN1C(=O)c2cccc3cccc(c23)C1=O)NO` [CBK261092] is lower in viability at 28.5 h, 10 µM: 97.4% for the first, 92% for the second.

Going from `COc1ccc(NC(=O)CN2CCN(S(=O)(=O)N(C)C)CC2)cc1` [CBK267465] to `COCCN(C(=S)Nc1ccc(OC)cc1)C(C)c1cccnc1` (stereo not shown) [CBK294471], the viability at 28.5 h, 10 µM falls from 93.3% to 83.7%.

Compared with `O=[N+]([O-])c1ccc(/C=N/c2ccc(Cc3ccc(/N=C/c4ccc([N+](=O)[O-])s4)cc3)cc2)s1` [CBK261228], `COc1ccc(CC(=O)Nc2ccc(Nc3ccccc3)cc2)cc1` [CBK263884] is higher in viability at 28.5 h, 10 µM: 98.3% for the first, 114% for the second.

Going from `Cc1csc(-c2cn3ccnc3c(N3CCN(c4ccccn4)CC3)n2)c1` [CBK066530] to `Cc1cccc(N2CCN(CCCC(c3ccc(F)cc3)c3ccc(F)cc3)CC2)n1` [CBK025113C], the viability at 28.5 h, 10 µM falls from 95.6% to 93.9%.

Going from `O=C(Nc1ccccc1F)C1CCCN1c1nc(O)cc(C(F)(F)F)n1` (stereo not shown) [CBK004307] to `COc1cc(NS(=O)(=O)c2ccccc2)c(Cl)cc1C(=O)O` [CBK286564], the viability at 28.5 h, 10 µM falls from 105% to 98%.

Going from `CCCNC(=O)c1ccc(C)c(NC(=O)N[C@@H](CO)c2ccccc2)c1` [CBK306609] to `Cc1ccc(-c2ccccc2CC2(C(=O)Nc3cccc(C(N)=O)c3)CCOCC2)c(C)c1` [CBK286423], the viability at 28.5 h, 10 µM falls from 96.2% to 92.7%.

First: CN(C)CC(=O)Nc1ccc2n(c1=O)C[C@H]1C[C@@H]2CN(Cc2ccccn2)C1 [CBK289206]
Second: O=C1N=C(NC2CCCCCC2)SC1CC(=O)N(Cc1ccccc1)c1ccccc1 (stereo not shown) [CBK067394]
The viability at 28.5 h, 10 µM of the first is higher: 107% for the first, 85.2% for the second.

Going from `COc1cccc(N2C(=O)/C(=C/c3ccc(O)c(O)c3)SC2=S)c1` [CBK263096] to `COC(=O)c1cc(C#N)c(=O)n(CC(O)COc2cccc(Br)c2)c1` (stereo not shown) [CBK304984], the viability at 28.5 h, 10 µM falls from 94.7% to 80.5%.

Compared with `CCOc1ccc(C(=O)Nc2ccc(-c3nc4cc(C)c(C)cc4o3)cc2)cc1[N+](=O)[O-]` [CBK262818], `Cc1cc(C)c2nc(-c3ccccn3)cc(C(=O)Nc3ccc(S(=O)(=O)Nc4onc(C)c4C)cc3)c2c1` [CBK267775] is lower in viability at 28.5 h, 10 µM: 94.2% for the first, 92.9% for the second.

First: COc1ccc(CN2CCN(Cc3ccc4c(c3)OCO4)CC2)c(OC)c1OC [CBK033874]
Second: CS(=O)(=O)c1ccc(-c2ccc(CN3CCN(C(=O)Cc4ccc(F)cc4F)CC3)cn2)cc1 [CBK162618T]
The viability at 28.5 h, 10 µM of the first is lower: 91.4% for the first, 122% for the second.

Compared with `CC(C)Nc1nccnc1OCCN1CCOCC1` [CBK113410], `Cc1csc2c(NC(C)C)ncnc12` [CBK017059] is lower in viability at 28.5 h, 10 µM: 104% for the first, 95.7% for the second.

Going from `CCc1nccn1CCC(=O)NC1CCN(c2ccc(F)cc2)CC1` [CBK306760] to `CCCc1nn(CC(=O)NC2CCC2)c(=O)c2cc3ccsc3n12` [CBK284194], the viability at 28.5 h, 10 µM falls from 90.1% to 89.1%.

Going from `CC(C)c1ccc(/C=C/C(=O)NCc2ccc(NS(C)(=O)=O)cc2)cc1` [CBK161512] to `CCC(COC)NS(=O)(=O)c1ccc(C(C)C)cc1` (stereo not shown) [CBK044587], the viability at 28.5 h, 10 µM rises from 97.8% to 108%.

Going from `Nc1ncc(-c2ccccc2)nc1NCc1cccnc1` [CBK063452] to `CN(C)c1ccc(-c2nc(-c3cccc(OC(F)(F)F)c3)cnc2N)cc1` [CBK063942], the viability at 28.5 h, 10 µM falls from 116% to 98.3%.

First: CC(=O)Nc1ccc(CCNC(=O)NCc2nc(C3CC3)no2)cc1 [CBK306221]
Second: NC(=O)c1ccc(NC(=O)c2cncc(-c3ccc(C(=O)N4CCOCC4)cc3)c2)cc1 [CBK160214]
The viability at 28.5 h, 10 µM of the first is lower: 96.1% for the first, 106% for the second.

First: COc1cc(CN2CCC(C)CC2)c([N+](=O)[O-])cc1OC [CBK261911]
Second: Cc1ccc(S(=O)(=O)Nc2cccc(C(=O)N3CCN(C)CC3)c2)cc1[N+](=O)[O-] [CBK038976]
The viability at 28.5 h, 10 µM of the first is higher: 90% for the first, 89.5% for the second.

First: COc1cc(C2SCC(=O)Nc3c2c(-c2ccccc2)nn3-c2ccccc2)cc(OC)c1OC (stereo not shown) [CBK265025]
Second: O=C(c1ccccc1)N1CCc2[nH]nc(-c3ccccc3)c2C1 [CBK287904]
The viability at 28.5 h, 10 µM of the first is higher: 108% for the first, 92.5% for the second.

Going from `CN1CCc2c(sc3c2C(=O)NC(/C=C\c2ccc([N+](=O)[O-])cc2)N3)C1` (stereo not shown) [CBK262909] to `Cc1nc(C(Cc2ccsc2)NC(=O)C2CCC(=O)N2)sc1C` (stereo not shown) [CBK284780], the viability at 28.5 h, 10 µM rises from 86.3% to 101%.

Going from `CCn1c(=O)c2c(cnn2C)c2ccccc21` [CBK017345] to `COc1ccccc1OC(=O)c1ccccc1Cl` [CBK090164], the viability at 28.5 h, 10 µM rises from 81.3% to 81.4%.

Going from `COC(=O)c1cc(-c2ccccc2OCc2ccccc2)ccc1NC(=O)c1ccc(Cl)cc1Cl` [CBK000415] to `COc1ccc(NS(=O)(=O)c2ccc(Cl)c(C(=O)Nc3ccccc3C(=O)O)c2)cc1` [CBK263209], the viability at 28.5 h, 10 µM rises from 88.5% to 104%.

First: COc1ccc(CNC(=O)c2sc3nc4c(c(C(F)(F)F)c3c2N)CCC4)cc1OC [CBK074568]
Second: O=c1cc(O)c2sc3nc(-c4ccco4)cc(C(F)(F)F)c3c2[nH]1 [CBK270223]
The viability at 28.5 h, 10 µM of the first is lower: 85.7% for the first, 98.2% for the second.

First: Clc1nsnc1N1CCOCC1 [CBK019133]
Second: O=S(=O)(c1cc(Cl)ccc1Cl)N1CCSC1 [CBK097980]
The viability at 28.5 h, 10 µM of the first is higher: 101% for the first, 99.4% for the second.

First: O=c1[nH]c(=O)c2cc(S(=O)(=O)Nc3cccc(-c4ccc(F)cc4)c3)ccc2[nH]1 [CBK286394]
Second: Nc1ccn([C@H]2C[C@@H](O)[C@@H](CO)O2)c(=S)n1 [CBK201187]
The viability at 28.5 h, 10 µM of the first is lower: 84.2% for the first, 91.4% for the second.

Same assay, conditions: human, hela cells, % viability, bulk resorufin, single well

Work on `COc1ccccc1CCNCc1ccc(Br)cc1` [CBK015036G] yielded a viability at 28.5 h, 10 µM of 96.2%.
